Data taken from US6787556B1, “Benzoic acid derivatives for the treatment of diabetes mellitus” (AstraZeneca AB, priority 1999, dated 2004).

Legend:
Type in all cases: cell-based
human PPARα = biological target: T1, human PPARα (Homo sapiens, UniProt Q07869); test: Cell transactivation assay in transiently transfected Hepa1c1c7 cells, PPRE-Lac Z reporter; details: concentration of 10 μM
T1 construct: expressed in transfected cells; host or cells: Hepa1c1c7 cells (transient transfection, Superfect)
T1 sequence (Q07869 1-468): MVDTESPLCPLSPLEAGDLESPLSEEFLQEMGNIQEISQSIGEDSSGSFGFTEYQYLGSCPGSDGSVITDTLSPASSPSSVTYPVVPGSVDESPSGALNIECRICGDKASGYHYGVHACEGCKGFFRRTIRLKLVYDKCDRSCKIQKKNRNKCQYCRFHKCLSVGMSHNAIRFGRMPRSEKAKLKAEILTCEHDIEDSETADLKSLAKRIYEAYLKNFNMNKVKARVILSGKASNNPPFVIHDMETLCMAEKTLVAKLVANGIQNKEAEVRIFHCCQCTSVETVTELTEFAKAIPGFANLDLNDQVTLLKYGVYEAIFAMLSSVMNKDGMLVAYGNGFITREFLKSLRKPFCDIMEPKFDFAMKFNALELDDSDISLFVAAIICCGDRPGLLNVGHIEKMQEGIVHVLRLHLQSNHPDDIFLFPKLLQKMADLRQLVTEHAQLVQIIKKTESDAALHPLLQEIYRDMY
Procedure: (§1) (B) Cell Transactivation Assays
(§2) Assays were performed by transient transfection of Hepa1c1c7 cells in which compounds of the invention were tested for their ability to activate human PPARα, δ and γ isoforms. Cells were co-transfected with either PPARa, d and g expression vectors (containing the entire ORF sequence) and a reporter construct carrying a PPRE linked Lac Z construct. Cells were transfected using Superfect and cultured in T75 flasks overnight, then plated into 96 well plates and left for 5 hours before the addition of test compound. After a further 24 hours PPAR activation was quantitated indirectly as β-Galactosidase activity by hydrolysis of chlorophenol red-β-D-galactopyranoside (CPRG), measured spectrophotometrically at 580 nm. Compounds of the invention were active in this assay.
(§3) According to their activity in transactivation assays and by comparison to the selective PPARγ agonist, BRL 49653; compounds of the invention were categorised as either having pharmacological properties consistent with: selective PPARγ agonists, partial agonists or non-selective PPAR α/γ agonists.

human PPARγ = biological target: T2, human PPARγ (Homo sapiens, UniProt P37231); test: as above; details: concentration of 10 μM
T2 construct: expressed in transfected cells; host or cells: Hepa1c1c7 cells (transient transfection, Superfect)
T2 sequence (P37231 1-505): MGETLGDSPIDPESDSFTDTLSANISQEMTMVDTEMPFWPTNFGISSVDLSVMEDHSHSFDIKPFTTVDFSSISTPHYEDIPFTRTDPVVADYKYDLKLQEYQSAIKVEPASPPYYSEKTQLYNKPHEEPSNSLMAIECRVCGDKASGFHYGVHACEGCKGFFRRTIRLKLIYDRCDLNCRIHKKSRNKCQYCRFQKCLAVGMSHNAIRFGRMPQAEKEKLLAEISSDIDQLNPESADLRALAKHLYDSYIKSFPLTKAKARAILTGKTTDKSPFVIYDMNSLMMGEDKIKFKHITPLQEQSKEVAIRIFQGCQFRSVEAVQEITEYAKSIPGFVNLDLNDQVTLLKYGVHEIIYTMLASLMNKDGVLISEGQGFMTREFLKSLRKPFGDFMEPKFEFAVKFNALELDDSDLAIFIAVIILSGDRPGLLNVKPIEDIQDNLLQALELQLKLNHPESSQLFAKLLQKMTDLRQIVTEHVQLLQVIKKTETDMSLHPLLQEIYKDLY
Procedure: as §1, §2, §3

3T3L1 preadipocytes = test: Adipocyte differentiation assay (glycerophosphate dehydrogenase activity); details: concentration of 10 μM, 3T3L1 cells, day 7; positive control BRL 49653
Procedure: Adipocyte Differentiation Assay
3T3L1 preadipocytes were grown in DMEM containing 10% NBCS and 1 day post-confluence cells were cultured in differentiation medium (DMEM containing 5% FCS, 1 μg/ml insulin, 0.25 μM dexamethasone and 0.5 mM IBMX) in the presence or absence of compounds. BRL 49653 was used as the positive control and the medium replenished after 3 days. On day 7, cells were lysed and glycerophosphate dehydrogenase activity measured spectrophotometrically at 340 nm.

α transactivation (human PPARα): 25% | γ transactivation (human PPARγ): 64%
Structure (SMILES): COc1cc(-c2nnn(Cc3ccccc3C(=O)O)n2)ccc1CN(C)C(=O)COc1ccc(Cl)cc1 [Compound 46]
activity as compared to the control (glycerophosphate dehydrogenase activity) (3T3L1 preadipocytes): 79%
